Measurements reported in BindingDB's records for doi:10.1021/jm400638v (The University of Queensland, 2013).
Where a SMILES comes first, the peptide text is derived from it. The star is where a group is joined. Palmitoyl = CCCCCCCCCCCCCCCC(=O)*

Assay: Agonist activity at […] in human platelets by platelet aggregation assay in presence of SFLLRN

**Q.** With `CCCCCCCCCCCCCCCC(=O)N[C@@H](CCCN=C(N)N)C(=O)N[C@@H](CS)C(=O)N[C@@H](CC(C)C)C(=O)N[C@@H](CO)C(=O)N[C@@H](CO)C(=O)N[C@@H](CO)C(=O)N[C@@H](C)C(=O)N[C@H](C(=O)N[C@@H](C)C(=O)N[C@@H](CC(N)=O)C(=O)N[C@@H](CCCN=C(N)N)C(=O)N[C@@H](CO)C(=O)N[C@@H](CCCCN)C(=O)N[C@@H](CCCCN)C(=O)N[C@@H](CO)C(=O)N[C@@H](CCCN=C(N)N)C(=O)N[C@@H](CC(C)C)C(=O)N[C@@H](Cc1ccccc1)C(=O)O)C(C)C` (Palmitoyl-RCLSSSAVANRSKKSRLF-OH) as the compound, how does the EC50 read?
**A.** 8 µM
